The target in one data set is T1, Human CYP1A1 (Homo sapiens, UniProt P04798).
T1 construct: purchased Sumitomo Chemical; host or cells: recombinant yeast, microsomal fraction
T1 sequence (P04798 1-512): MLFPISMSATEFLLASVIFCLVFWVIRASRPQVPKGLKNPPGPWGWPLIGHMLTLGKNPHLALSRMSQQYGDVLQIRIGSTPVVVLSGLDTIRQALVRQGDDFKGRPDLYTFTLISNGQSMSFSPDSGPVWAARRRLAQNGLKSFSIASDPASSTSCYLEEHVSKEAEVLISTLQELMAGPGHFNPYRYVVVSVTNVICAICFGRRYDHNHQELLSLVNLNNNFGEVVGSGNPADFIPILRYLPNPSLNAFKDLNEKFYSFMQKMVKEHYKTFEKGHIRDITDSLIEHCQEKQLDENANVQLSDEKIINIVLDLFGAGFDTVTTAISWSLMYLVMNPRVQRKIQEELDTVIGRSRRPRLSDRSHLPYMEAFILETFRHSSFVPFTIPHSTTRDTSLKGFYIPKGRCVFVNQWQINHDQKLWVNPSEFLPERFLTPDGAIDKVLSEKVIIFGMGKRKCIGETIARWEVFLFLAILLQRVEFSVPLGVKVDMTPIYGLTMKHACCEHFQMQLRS
The experiment in a line: Metabolism of herbicides in microsomes of recombinant yeast expressing human P450. It is filed as in vitro ADME.

The subject of data set [1] is microsomal fraction of Control plants. The experiment in a line: 7-ethoxyresorufin O-deethylation activity using a microsomal fraction. It counts as biochemical, Solanum tuberosum cv. MayQueen. Here is the method: (§1) A reaction was initiated by adding 7-ethoxyresorufin to the concentration of 10 μM to a reaction solution containing 0.1 M potassium phosphate buffer (pH 7.4), 3 mM NADPH, and 1 mg/ml microsomal fractions at the final concentrations. The mixture was incubated at 37° C. for 30 min, ice-cooled acetone was added thereto, and allowed to stand on ice for 10 min. The supernatant was measured using the fluorometer (excitation wavelength of 550 nm, and emission of 586 nm).
(§2) Inhibition of activity by addition of carbon monoxide and absence of NADPH indicated P450-dependency. On the other hand, an increased activity was not observed in S1972 or S1974. […] In the table, “EROD activity” of (a) indicates 7-ethoxyresorufin O-deethylase activity (pmol/min/mg of protein) and means±standard deviations in three independent experiments. In (b), the values indicate the activities in the presence of carbon monoxide. In (c), the values indicate the activities in the absence of NADPH.

Data set [2] deals with T2, microsomal fraction of S1965 (human CYP1A1) (Homo sapiens, UniProt P04798).
T2 construct: expressed in transfected cells; host or cells: transgenic potato (Solanum tuberosum cv. MayQueen) line S1965, plasmid pUHA1, microsomal fraction
T2 sequence (P04798 1-512): T1 sequence (P04798 1-512)
The description is as above. It counts as biochemical. Here is the method: as §1, §2

Data set [3] addresses T3, microsomal fraction of S1972 (human CYP2B6) (Homo sapiens, UniProt P20813).
T3 construct: expressed in transfected cells; host or cells: transgenic potato (Solanum tuberosum cv. MayQueen) line S1972, plasmid pUHB6, microsomal fraction
The description is as above. It counts as biochemical. How it is done:
as §1, §2

For data set [4], the target named is T4, microsomal fraction of S1974 (human CYP2C19) (Homo sapiens, UniProt P33261).
T4 construct: expressed in transfected cells; host or cells: transgenic potato (Solanum tuberosum cv. MayQueen) line S1974, plasmid pUHC19, microsomal fraction
T4 sequence (P33261 whole entry): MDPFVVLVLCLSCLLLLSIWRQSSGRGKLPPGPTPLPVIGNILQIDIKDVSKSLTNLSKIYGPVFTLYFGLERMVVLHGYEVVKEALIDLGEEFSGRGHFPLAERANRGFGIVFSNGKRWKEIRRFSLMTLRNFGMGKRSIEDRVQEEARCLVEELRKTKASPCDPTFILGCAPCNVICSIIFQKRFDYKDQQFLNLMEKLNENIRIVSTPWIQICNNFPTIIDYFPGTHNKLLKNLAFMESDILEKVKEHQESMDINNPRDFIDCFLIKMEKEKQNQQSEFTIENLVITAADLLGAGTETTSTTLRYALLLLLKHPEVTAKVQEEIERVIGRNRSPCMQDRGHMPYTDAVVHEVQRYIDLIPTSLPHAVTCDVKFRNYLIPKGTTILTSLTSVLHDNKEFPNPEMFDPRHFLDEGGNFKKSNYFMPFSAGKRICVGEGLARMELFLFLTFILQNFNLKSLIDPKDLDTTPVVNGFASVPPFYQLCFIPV
Described as above. It is filed as biochemical. How it is done: as §1, §2

The target in data set [5] is T5, microsomal fraction of T1977 (human CYP1A1, CYP2B6, CYP2C19) (Homo sapiens, UniProt P04798).
T5 construct: expressed in transfected cells; host or cells: transgenic potato (Solanum tuberosum cv. MayQueen) line T1977, plasmid pIKBAC, microsomal fraction
T5 sequence (P04798 1-512): T1 sequence (P04798 1-512)
Described as above. It counts as biochemical. Here is the method: as §1, §2

The next data set has as its system non-transformed MayQueen. The experiment in a line: Assay for herbicide resistance, non-transformed potato. It is filed as in vivo. Details: key: 1: alomost dead; 2: severely inhibited growth; 3: slightly inferior growth; 4: the same growth as that when herbicide was not dispersed. To be noted: 14 days after dispersal. From the text: 4, the same growth as that when herbicide was not dispersed.

For a further data set, the system named is S1974 (human CYP2C19). The experiment in a line: Herbicide tolerance assay for transformants. It is filed as in vivo, Solanum tuberosum cv. MayQueen. To be noted: acetochlor 20 μmol, atrazine 1.2 μmol, metolachlor 30 μmol dispersed. From the text: Then, herbicides were dispersed.
Data set [6] relates to leaves of potato individuals expressing three types of P450. The experiment in a line: 7-ethoxycoumarin O-deethylation activity in leaves of kanamycin-resistant individuals. It is filed as in vivo, Solanum tuberosum cv. MayQueen. To be noted: leaves cultured with 7-ethoxycoumarin for 3 days. How it is done: Leaves of the kanamycin-resistant individuals (0.1 g) were cultured in 5 ml of a liquid medium containing 2% sucrose with 100 μl of 20 mM 7-ethoxycoumarin for 3 days. Then, the leaves were crushed in 500 μl of 0.1 M potassium phosphate buffer (pH 7.4), and chloroform was added to the supernatant and mixed. To the chloroform layer, 0.01 N NaOH/0.1 M NaCl was added, and measurement was performed at excitation wavelength of 366 nm and at emission of 452 nm with the Hitachi fluorometer. […] Each of CYP1A1-expressing individual S1965, and CYP2B6-expressing individual S1972 was selected in the same manner.

The target in the next data set is Human CYP2C9 (Homo sapiens, UniProt P11712). As to the kind of experiment: Herbicide metabolism by human P450 molecular species (microsomal fraction). It counts as in vitro ADME.
Human CYP2C9, sequence (P11712 whole entry): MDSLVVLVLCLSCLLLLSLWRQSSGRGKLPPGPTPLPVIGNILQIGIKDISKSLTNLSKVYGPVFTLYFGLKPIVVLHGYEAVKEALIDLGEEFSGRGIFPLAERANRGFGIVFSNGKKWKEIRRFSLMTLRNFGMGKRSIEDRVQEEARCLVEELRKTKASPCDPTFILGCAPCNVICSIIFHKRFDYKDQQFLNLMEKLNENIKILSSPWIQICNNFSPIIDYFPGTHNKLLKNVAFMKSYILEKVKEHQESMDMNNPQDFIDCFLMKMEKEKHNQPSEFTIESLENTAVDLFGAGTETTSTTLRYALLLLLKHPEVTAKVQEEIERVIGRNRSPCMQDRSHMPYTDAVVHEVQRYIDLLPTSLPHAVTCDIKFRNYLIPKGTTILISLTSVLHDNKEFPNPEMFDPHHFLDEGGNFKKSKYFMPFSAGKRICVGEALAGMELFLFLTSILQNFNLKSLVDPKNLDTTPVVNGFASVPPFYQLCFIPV
For data set [7], the system named is seeds of Nipponbare into which the gene was not introduced. The experiment in a line: Germination assay for herbicide resistance, non-introduced rice seeds. It counts as in vivo, rice (Nipponbare). To be noted: […] metolachlor, […] alachlor, 15 μM triflurarin; after about 4 to 7 days.
Another data set concerns the target T6, Human CYP2B6 (Homo sapiens, UniProt P20813).
T6 sequence (P20813 1-491): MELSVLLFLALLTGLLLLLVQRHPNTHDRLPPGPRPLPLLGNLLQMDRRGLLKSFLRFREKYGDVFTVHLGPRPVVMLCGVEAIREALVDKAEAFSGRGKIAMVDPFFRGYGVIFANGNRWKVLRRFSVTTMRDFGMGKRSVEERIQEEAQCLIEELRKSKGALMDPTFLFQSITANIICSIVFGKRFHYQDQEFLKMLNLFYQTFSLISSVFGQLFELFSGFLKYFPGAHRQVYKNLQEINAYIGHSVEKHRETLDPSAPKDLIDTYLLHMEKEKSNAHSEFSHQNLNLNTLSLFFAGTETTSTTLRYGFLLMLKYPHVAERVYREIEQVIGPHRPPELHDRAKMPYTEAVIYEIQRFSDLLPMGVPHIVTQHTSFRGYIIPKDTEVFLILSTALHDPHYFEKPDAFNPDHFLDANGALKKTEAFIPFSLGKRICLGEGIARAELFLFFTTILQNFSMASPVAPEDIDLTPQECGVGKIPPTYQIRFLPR
The experiment in a line: Metabolism of herbicides in microsomes of recombinant yeast expressing human P450. How it is done: The reaction was carried out in a range of temperature suitable for an organism from which a p450 molecular species is derived (for example, 37° C. for human P450), by mixing with air while vigorously shaking, within a period during which an enzyme is not inactivated (for example, for 10 to 60 min).
From the height of the peak, a metabolized amount can be obtained.
To 0.1 M potassium phosphate buffer (pH 7.4), the microsomal fraction prepared from each of yeast strains respectively expressing one of 11 human P450 molecular species (obtained from Sumitomo Chemical) was added so that the amount of the p450 would be 25 pmol. Furthermore, 0.5 mM NADPH, 5 mM glucose 6 phosphate, 1 U/ml glucose 6 phosphate dehydrogenase, and 0.1 mM each of the following herbicides (those available in the market were used) were added at the final concentrations thereto to make the total volume of 100 μl. The reaction mixture was shaken at 37° C. for 60 min, and an organic solvent was added thereto for the extraction. The extract was applied to the high performance liquid chromatography, and the metabolite was measured.

[8] abbreviates: 10 μM 7-ethoxyresorufin, means±standard deviations in three independent experiments.

Data on 13 molecules can be found in patent US6613961B1, “Plants capable of metabolizing drugs and use thereof” (priority 1998, dated 2003).

For `CNC(=O)N(C)c1nc2ccccc2s1` [methabenzthiazuron], the metabolic reaction confirmed result at Human CYP1A1 is “N-demethylation, ring hydroxylation”.
Consider `CCOc1ccc2nc3ccc(=O)cc-3oc2c1` [7-ethoxyresorufin], for which the “-NADPH (Inhibition rate)” value in data set [1] was found to be 82%; in data set [2], 99%; in [5], 99%. Further, the “CO (Inhibition rate)” value was found to be 45% in data set [1], 77% in data set [2] and 76% in data set [5]. Besides, the EROD activity was 0.11 ± 0.01 pmol/min/mg of protein in data set [1] (setting [8]); 5.78 ± 0.51 pmol/min/mg of protein in data set [2] (setting [8]); 0.12 ± 0.03 pmol/min/mg of protein in data set [3] (setting [8]); 0.14 ± 0.03 pmol/min/mg of protein in data set [4] (setting [8]); 2.92 ± 0.72 pmol/min/mg of protein in data set [5] (setting [8]). The “EROD activity in the absence of NADPH” value in [1] (-NADPH) was 0.02 pmol/min/mg of protein; in data set [2] (-NADPH), 0.06 pmol/min/mg of protein; in data set [5] (-NADPH), 0.02 pmol/min/mg of protein. The “EROD activity in the presence of carbon monoxide” value in data set [1] (CO) is on record as 0.06 pmol/min/mg of protein; in data set [2] (CO), 1.33 pmol/min/mg of protein; in data set [5] (CO), 0.69 pmol/min/mg of protein. The “7-ethoxyresorufin O-deethylation activity, times higher than the controls” value is listed as approximately 53 times in [2] and “about 27 times” in data set [5]. The “increased 7-ethoxyresorufin O-deethylation activity” value in data set [3] and in [4] was “not observed” in each case.
Consider `CCOCN(C(=O)CCl)c1c(C)cccc1CC` [acetochlor], for which the Resistance to herbicide in the data set with non-transformed MayQueen (Acetochlor 5 μmol/pot) was 2; in the data set on non-transformed MayQueen (Acetochlor 10 μmol/pot) it was 2; with non-transformed MayQueen (Acetochlor 15 μmol/pot), 1. Also, in the data set with S1974 (human CYP2C19), the “resistance of the transformant to the herbicide” value is “strong resistance”.
Take `CCOc1ccc2ccc(=O)oc2c1` [7-ethoxycoumarin]: the “7-ethoxycoumarin O-deethylation activity” value in [6] (individual T1977) and in data set [6] (individual T1979) was “higher activity than the control” in each case.
Consider `COc1cc(OC)nc(NC(=O)NS(=O)(=O)c2c(Cl)nc3ccccn23)n1` [imazosulfuron], for which, on Human CYP2C9, the metabolic reaction confirmed entry is listed as “ring hydroxylation”.
Consider `CCc1cccc(CC)c1N(COC)C(=O)CCl` [alachlor], for which the Germination of seeds entry in data set [7] was “inhibited”. At Human CYP2B6, the metabolic reaction confirmed result is given as “O-deethylation, O-demethylation”.
For `CCOC1Oc2ccc(OS(C)(=O)=O)cc2C1(C)C` (stereo not shown) [ethofumesate], the metabolic reaction confirmed entry at Human CYP2B6 was “O-deethylation, hydroxylation”.
`CO/N=C(/C)c1cccc(Oc2nc(OC)cc(OC)n2)c1C(=O)OC` [pyriminobac-methyl]: the metabolic reaction confirmed entry on Human CYP1A1 is “hydroxylation”.
For the molecule `CCS(=O)(=O)Oc1ccc2c(c1)C(C)(C)CO2` [benfuresate], the metabolic reaction confirmed result on Human CYP2B6 is listed as “O-deethylation, hydroxylation”.
Regarding `CCCN(CCC)c1c([N+](=O)[O-])cc(C(F)(F)F)cc1[N+](=O)[O-]` [triflurarin], the Germination of seeds entry in data set [7] is “inhibited”. Besides, the metabolic reaction confirmed result on Human CYP2B6 is on record as “O-demethylation”.
Regarding `CCNc1nc(Cl)nc(NC(C)C)n1` [atrazine], the metabolic reaction confirmed entry on Human CYP1A1 is given as “N-deethylation, N-deisopropylation”. For the same molecule, the “resistance of the transformant to the herbicide” value in the data set with S1974 (human CYP2C19) is “strong resistance”.
`Cc1ccc(NC(=O)N(C)C)cc1Cl` [chlorotoluron]: on Human CYP1A1, the metabolic reaction confirmed entry is “N-demethylation, ring hydroxylation”.
Still for that read-out and setting: to `CNc1cnn(-c2cccc(C(F)(F)F)c2)c(=O)c1Cl` [norflurazon] belongs “N-demethylation”.
